Key:
Assay in all cases: 33PanQinase kinome-wide selectivity profile (Reaction Biology)
Assay type in all cases: biochemical
350 wild-type kinases [1] = target: T1, 350 wild-type kinases (Homo sapiens, UniProt Q04771); details: kinase ACVR1, ATP 3 µM, singlicate
T1 construct: purchased Reaction Biology (assay service)
Protocol: (§1) Compound RN341 was tested at two concentrations of 1 and 10 μM against a panel of 350 wild-type kinases in the ^33PanQinase assay. The assay was performed by Reaction Biology (www.reactionbiology.com/services/kinase-assays/kinase-panel-screening/).

350 wild-type kinases [2] = target: T2, 350 wild-type kinases (Homo sapiens, UniProt P53355); details: kinase DAPK1, ATP 0,1 µM, singlicate
T2 construct: purchased Reaction Biology (assay service)
Protocol: as §1

350 wild-type kinases [3] = target: T3, 350 wild-type kinases (Homo sapiens, UniProt Q8IZL9); details: singlicate; for Residual activity (% of control), CDK20/CycH: kinase CDK20/CycH, ATP 0,1 µM; for Residual activity (% of control), CDK20/CycT1: kinase CDK20/CycT1, ATP 1 µM
T3 construct: purchased Reaction Biology (assay service)
T3 sequence (Q8IZL9 whole entry): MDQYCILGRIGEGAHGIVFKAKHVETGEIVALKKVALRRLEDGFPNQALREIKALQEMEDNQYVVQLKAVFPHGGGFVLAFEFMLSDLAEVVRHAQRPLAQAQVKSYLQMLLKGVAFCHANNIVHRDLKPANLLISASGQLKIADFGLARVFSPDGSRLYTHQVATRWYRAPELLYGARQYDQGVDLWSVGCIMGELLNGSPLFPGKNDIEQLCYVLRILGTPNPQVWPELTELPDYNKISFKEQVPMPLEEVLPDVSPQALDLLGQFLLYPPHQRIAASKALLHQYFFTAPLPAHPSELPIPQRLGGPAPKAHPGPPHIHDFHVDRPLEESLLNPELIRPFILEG
Protocol: as §1

350 wild-type kinases [4] = target: T4, 350 wild-type kinases (Homo sapiens, UniProt Q9Y5S2); details: kinase CDC42BPB, ATP 0,1 µM, singlicate
T4 construct: purchased Reaction Biology (assay service)
T4 sequence (Q9Y5S2 whole entry): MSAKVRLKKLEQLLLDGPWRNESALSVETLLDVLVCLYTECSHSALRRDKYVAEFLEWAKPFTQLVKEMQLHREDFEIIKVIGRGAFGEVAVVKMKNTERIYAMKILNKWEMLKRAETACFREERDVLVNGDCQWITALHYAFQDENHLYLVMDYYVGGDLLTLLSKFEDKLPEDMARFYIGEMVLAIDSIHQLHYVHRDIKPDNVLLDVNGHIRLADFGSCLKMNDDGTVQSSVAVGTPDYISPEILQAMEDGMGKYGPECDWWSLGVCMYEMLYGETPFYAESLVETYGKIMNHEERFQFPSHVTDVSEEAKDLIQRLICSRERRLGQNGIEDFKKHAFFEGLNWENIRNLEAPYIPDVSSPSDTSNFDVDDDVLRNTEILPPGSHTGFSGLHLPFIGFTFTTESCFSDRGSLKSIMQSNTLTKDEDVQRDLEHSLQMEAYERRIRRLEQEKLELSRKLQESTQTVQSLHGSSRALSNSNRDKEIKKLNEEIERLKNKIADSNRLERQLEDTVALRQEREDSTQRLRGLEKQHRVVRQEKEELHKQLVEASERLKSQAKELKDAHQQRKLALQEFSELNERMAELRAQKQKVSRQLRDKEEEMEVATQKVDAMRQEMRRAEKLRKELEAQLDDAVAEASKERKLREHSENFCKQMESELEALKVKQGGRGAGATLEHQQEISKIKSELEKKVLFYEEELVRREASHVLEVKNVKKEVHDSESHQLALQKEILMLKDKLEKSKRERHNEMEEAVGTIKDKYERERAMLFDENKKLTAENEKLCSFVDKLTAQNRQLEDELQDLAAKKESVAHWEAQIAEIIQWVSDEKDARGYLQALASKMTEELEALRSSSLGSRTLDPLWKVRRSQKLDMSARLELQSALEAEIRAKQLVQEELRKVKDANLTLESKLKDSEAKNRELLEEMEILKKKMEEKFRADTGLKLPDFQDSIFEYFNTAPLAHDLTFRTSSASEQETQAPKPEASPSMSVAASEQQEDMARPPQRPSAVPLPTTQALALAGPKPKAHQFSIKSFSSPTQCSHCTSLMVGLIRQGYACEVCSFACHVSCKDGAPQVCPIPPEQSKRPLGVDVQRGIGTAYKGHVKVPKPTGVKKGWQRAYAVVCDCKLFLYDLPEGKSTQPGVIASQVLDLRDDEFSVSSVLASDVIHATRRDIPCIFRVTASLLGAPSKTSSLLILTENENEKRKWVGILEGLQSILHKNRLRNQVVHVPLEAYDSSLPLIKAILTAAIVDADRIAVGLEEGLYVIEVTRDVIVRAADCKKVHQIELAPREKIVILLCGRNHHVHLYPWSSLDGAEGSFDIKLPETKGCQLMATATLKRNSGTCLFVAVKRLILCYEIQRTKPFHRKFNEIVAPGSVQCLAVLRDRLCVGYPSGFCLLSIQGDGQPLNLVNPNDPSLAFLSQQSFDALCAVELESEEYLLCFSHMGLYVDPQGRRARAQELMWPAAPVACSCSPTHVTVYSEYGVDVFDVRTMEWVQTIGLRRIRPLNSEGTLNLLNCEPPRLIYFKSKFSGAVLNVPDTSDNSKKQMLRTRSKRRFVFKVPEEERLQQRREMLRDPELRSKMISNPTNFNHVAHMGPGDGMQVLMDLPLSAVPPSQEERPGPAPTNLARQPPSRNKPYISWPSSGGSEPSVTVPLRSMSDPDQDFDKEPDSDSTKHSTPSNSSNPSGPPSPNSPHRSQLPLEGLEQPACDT
Protocol: as §1

350 wild-type kinases [5] = target: T5, 350 wild-type kinases (Homo sapiens, UniProt Q8TDC3); details: kinase BRSK1, ATP 1 µM, singlicate
T5 construct: purchased Reaction Biology (assay service)
T5 sequence (Q8TDC3 whole entry): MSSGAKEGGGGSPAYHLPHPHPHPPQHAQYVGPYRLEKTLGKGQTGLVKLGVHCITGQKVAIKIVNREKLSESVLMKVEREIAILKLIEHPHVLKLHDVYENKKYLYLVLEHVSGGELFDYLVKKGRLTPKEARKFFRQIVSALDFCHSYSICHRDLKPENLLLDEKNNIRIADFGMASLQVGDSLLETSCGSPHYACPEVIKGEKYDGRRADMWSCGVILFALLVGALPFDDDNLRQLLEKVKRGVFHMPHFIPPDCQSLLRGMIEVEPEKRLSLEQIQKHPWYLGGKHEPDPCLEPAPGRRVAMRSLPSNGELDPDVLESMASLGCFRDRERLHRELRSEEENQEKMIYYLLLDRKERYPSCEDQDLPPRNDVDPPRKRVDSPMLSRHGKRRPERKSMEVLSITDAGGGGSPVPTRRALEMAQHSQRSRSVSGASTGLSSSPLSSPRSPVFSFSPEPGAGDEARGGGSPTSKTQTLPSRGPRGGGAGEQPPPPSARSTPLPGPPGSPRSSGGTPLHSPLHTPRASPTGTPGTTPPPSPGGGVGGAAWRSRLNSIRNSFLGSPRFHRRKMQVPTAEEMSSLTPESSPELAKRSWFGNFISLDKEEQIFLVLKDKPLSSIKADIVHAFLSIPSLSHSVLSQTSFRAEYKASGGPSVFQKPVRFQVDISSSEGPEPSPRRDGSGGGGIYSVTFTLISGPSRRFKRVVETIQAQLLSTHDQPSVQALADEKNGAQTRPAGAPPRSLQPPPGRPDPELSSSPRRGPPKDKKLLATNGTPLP
Protocol: as §1

350 wild-type kinases [6] = target: T6, 350 wild-type kinases (Homo sapiens, UniProt Q8IU85); details: kinase CAMK1D, ATP 0,3 µM, singlicate
T6 construct: purchased Reaction Biology (assay service)
T6 sequence (Q8IU85 whole entry): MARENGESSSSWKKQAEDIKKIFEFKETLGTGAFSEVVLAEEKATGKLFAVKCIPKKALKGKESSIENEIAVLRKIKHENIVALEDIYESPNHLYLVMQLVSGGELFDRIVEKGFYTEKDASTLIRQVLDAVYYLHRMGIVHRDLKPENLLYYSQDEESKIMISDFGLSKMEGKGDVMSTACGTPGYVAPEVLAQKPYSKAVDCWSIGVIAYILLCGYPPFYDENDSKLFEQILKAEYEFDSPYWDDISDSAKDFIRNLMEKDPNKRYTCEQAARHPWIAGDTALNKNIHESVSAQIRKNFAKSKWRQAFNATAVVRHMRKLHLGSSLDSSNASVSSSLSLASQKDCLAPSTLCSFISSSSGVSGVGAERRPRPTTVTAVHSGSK
Protocol: as §1

350 wild-type kinases [7] = target: T7, 350 wild-type kinases (Homo sapiens, UniProt Q5S007); details: 1 and 10 μM; authors think kinase was inactive in panel
T7 construct: purchased Reaction Biology (assay service)
Protocol: as §1

350 wild-type kinases [8] = target: T8, 350 wild-type kinases (Homo sapiens, UniProt Q13555); details: kinase CAMK2G, ATP 1 µM, singlicate
T8 construct: purchased Reaction Biology (assay service)
Protocol: as §1

350 wild-type kinases [9] = target: T9, 350 wild-type kinases (Homo sapiens, UniProt Q96Q40); details: singlicate; for Residual activity (% of control), CDK15/CycA2: kinase CDK15/CycA2, ATP 1 µM; for Residual activity (% of control), CDK15/CycB1: kinase CDK15/CycB1, ATP 0,3 µM
T9 construct: purchased Reaction Biology (assay service)
T9 sequence (Q96Q40 whole entry): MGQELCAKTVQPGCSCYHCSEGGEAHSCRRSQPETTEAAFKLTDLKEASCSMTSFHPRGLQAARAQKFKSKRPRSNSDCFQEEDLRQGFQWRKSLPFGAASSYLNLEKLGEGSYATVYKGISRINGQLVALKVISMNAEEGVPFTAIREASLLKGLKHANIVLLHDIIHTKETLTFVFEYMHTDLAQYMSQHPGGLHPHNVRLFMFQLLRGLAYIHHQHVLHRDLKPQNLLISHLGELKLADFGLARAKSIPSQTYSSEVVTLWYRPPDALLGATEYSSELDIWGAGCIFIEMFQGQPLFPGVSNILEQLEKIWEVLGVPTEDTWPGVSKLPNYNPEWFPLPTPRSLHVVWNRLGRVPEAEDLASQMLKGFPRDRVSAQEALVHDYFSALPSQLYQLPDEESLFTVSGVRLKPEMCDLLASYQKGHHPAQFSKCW
Protocol: as §1

350 wild-type kinases [10] = target: T10, 350 wild-type kinases (Homo sapiens, UniProt P51813); details: kinase BMX, ATP 1 µM, singlicate
T10 construct: purchased Reaction Biology (assay service)
Protocol: as §1

350 wild-type kinases [11] = target: T11, 350 wild-type kinases (Homo sapiens, UniProt Q9HCP0); details: kinase CK1gamma1, ATP 0,1 µM, singlicate
T11 construct: purchased Reaction Biology (assay service)
Protocol: as §1

350 wild-type kinases [12] = target: T12, 350 wild-type kinases (Homo sapiens, UniProt Q09013); details: kinase DMPK, ATP 0,1 µM, singlicate
T12 construct: purchased Reaction Biology (assay service)
Protocol: as §1

350 wild-type kinases [13] = target: T13, 350 wild-type kinases (Homo sapiens, UniProt O96017); details: kinase CHK2, ATP 1 µM, singlicate
T13 construct: purchased Reaction Biology (assay service)
Protocol: as §1

350 wild-type kinases [14] = target: T14, 350 wild-type kinases (Homo sapiens, UniProt P68400); details: kinase CK2alpha1, ATP 0,1 µM, singlicate
T14 construct: purchased Reaction Biology (assay service)
T14 sequence (P68400 whole entry): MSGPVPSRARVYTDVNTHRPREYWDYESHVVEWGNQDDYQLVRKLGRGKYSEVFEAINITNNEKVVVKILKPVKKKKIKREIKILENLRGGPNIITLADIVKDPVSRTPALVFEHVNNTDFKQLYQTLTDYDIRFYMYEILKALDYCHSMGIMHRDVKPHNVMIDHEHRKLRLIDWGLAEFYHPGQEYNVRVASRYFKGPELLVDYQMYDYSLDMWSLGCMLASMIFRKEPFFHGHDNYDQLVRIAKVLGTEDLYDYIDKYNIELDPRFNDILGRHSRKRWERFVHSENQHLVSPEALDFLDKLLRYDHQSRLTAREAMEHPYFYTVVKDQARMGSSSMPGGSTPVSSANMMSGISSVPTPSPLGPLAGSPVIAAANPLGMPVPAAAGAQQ
Protocol: as §1

350 wild-type kinases [15] = target: T15, 350 wild-type kinases (Homo sapiens, UniProt Q9UQM7); details: kinase CAMK2A, ATP 3 µM, singlicate
T15 construct: purchased Reaction Biology (assay service)
Protocol: as §1

350 wild-type kinases [16] = target: T16, 350 wild-type kinases (Homo sapiens, UniProt O43293); details: kinase DAPK3, ATP 0,1 µM, singlicate
T16 construct: purchased Reaction Biology (assay service)
Protocol: as §1

350 wild-type kinases [17] = target: T17, 350 wild-type kinases (Homo sapiens, UniProt Q13705); details: kinase ACVR2B, ATP 1 µM, singlicate
T17 construct: purchased Reaction Biology (assay service)
Protocol: as §1

350 wild-type kinases [18] = target: T18, 350 wild-type kinases (Homo sapiens, UniProt O14578); details: kinase CIT 1-450, ATP 0,1 µM, singlicate
T18 construct: purchased Reaction Biology (assay service)
Protocol: as §1

350 wild-type kinases [19] = target: T19, 350 wild-type kinases (Homo sapiens, UniProt P33981); details: 1 μM, TTK; read-out: TTK activity, % of control
T19 construct: purchased Reaction Biology (assay service)
Protocol: as §1

350 wild-type kinases [20] = target: T20, 350 wild-type kinases (Homo sapiens, UniProt Q96GD4); details: kinase AuroraB, ATP 10 µM, singlicate
T20 construct: purchased Reaction Biology (assay service)
Protocol: as §1

350 wild-type kinases [21] = target: T21, 350 wild-type kinases (Homo sapiens, UniProt P51451); details: kinase BLK, ATP 0,3 µM, singlicate
T21 construct: purchased Reaction Biology (assay service)
T21 sequence (P51451 whole entry): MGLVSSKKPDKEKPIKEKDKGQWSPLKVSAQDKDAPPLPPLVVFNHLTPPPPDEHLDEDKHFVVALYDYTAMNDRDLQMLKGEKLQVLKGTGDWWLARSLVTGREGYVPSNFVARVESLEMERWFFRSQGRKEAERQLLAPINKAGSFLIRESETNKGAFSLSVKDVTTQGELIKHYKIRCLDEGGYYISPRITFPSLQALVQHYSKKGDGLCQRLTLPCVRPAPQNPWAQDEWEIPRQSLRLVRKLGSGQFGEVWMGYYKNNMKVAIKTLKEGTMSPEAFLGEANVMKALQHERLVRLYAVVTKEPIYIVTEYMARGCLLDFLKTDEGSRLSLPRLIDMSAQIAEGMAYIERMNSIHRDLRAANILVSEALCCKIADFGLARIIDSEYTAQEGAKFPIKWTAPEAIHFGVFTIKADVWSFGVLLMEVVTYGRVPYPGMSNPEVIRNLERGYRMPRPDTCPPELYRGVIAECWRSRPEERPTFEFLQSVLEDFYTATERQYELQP
Protocol: as §1

350 wild-type kinases [22] = target: T22, 350 wild-type kinases (Homo sapiens, UniProt O94921); details: kinase CDK14/CycY, ATP 0,1 µM, singlicate
T22 construct: purchased Reaction Biology (assay service)
Protocol: as §1

350 wild-type kinases [23] = target: T23, 350 wild-type kinases (Homo sapiens, UniProt P11802); details: singlicate; for Residual activity (% of control), CDK4/CycD1: kinase CDK4/CycD1; for Residual activity (% of control), CDK4/CycD1 / Residual activity (% of control), CDK4/CycD2: ATP 3 µM; for Residual activity (% of control), CDK4/CycD2: kinase CDK4/CycD2; for Residual activity (% of control), CDK4/CycD3: kinase CDK4/CycD3, ATP 10 µM
T23 construct: purchased Reaction Biology (assay service)
T23 sequence (P11802 whole entry): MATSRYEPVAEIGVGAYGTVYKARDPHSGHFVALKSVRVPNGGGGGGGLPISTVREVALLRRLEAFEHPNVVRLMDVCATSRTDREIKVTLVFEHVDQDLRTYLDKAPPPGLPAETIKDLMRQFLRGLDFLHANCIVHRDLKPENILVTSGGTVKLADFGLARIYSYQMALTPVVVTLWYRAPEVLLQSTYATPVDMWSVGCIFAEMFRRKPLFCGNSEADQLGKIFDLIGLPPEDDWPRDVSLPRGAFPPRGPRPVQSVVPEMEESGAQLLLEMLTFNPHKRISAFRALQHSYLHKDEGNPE
Protocol: as §1

## CCSc1nc(NC)c2c(-c3cccc(NC(=O)Nc4cc(C(C)(C)C)nn4-c4ccc(C)cc4)c3)c[nH]c2n1 [Compound 32]
350 wild-type kinases [1]; Assay Conc. 1.0E-05 M
  Residual activity (% of control), ACVR1: 93 % of control
350 wild-type kinases [1]; Assay Conc. 1.0E-06 M
  Residual activity (% of control), ACVR1: 107 % of control
350 wild-type kinases [2]; Assay Conc. 1.0E-05 M
  Residual activity (% of control), DAPK1: 78 % of control
350 wild-type kinases [2]; Assay Conc. 1.0E-06 M
  Residual activity (% of control), DAPK1: 95 % of control
350 wild-type kinases [3]; Assay Conc. 1.0E-05 M
  Residual activity (% of control), CDK20/CycH: 87 % of control
  Residual activity (% of control), CDK20/CycT1: 84 % of control
350 wild-type kinases [3]; Assay Conc. 1.0E-06 M
  Residual activity (% of control), CDK20/CycH: 103 % of control
  Residual activity (% of control), CDK20/CycT1: 99 % of control
350 wild-type kinases [4]; Assay Conc. 1.0E-05 M
  Residual activity (% of control), CDC42BPB: 57 % of control
350 wild-type kinases [4]; Assay Conc. 1.0E-06 M
  Residual activity (% of control), CDC42BPB: 84 % of control
350 wild-type kinases [5]; Assay Conc. 1.0E-05 M
  Residual activity (% of control), BRSK1: 89 % of control
350 wild-type kinases [5]; Assay Conc. 1.0E-06 M
  Residual activity (% of control), BRSK1: 101 % of control
350 wild-type kinases [6]; Assay Conc. 1.0E-05 M
  Residual activity (% of control), CAMK1D: 101 % of control
350 wild-type kinases [6]; Assay Conc. 1.0E-06 M
  Residual activity (% of control), CAMK1D: 113 % of control
350 wild-type kinases [7]
  LRRK2 inhibition in the 33PanQinase screen: not detected as a LRRK2 inhibitor
350 wild-type kinases [8]; Assay Conc. 1.0E-05 M
  Residual activity (% of control), CAMK2G: 122 % of control
350 wild-type kinases [8]; Assay Conc. 1.0E-06 M
  Residual activity (% of control), CAMK2G: 106 % of control
350 wild-type kinases [9]; Assay Conc. 1.0E-05 M
  Residual activity (% of control), CDK15/CycA2: 92 % of control
  Residual activity (% of control), CDK15/CycB1: 86 % of control
350 wild-type kinases [9]; Assay Conc. 1.0E-06 M
  Residual activity (% of control), CDK15/CycA2: 116 % of control
  Residual activity (% of control), CDK15/CycB1: 98 % of control
350 wild-type kinases [10]; Assay Conc. 1.0E-05 M
  Residual activity (% of control), BMX: 68 % of control
350 wild-type kinases [10]; Assay Conc. 1.0E-06 M
  Residual activity (% of control), BMX: 109 % of control
350 wild-type kinases [11]; Assay Conc. 1.0E-05 M
  Residual activity (% of control), CK1gamma1: 97 % of control
350 wild-type kinases [11]; Assay Conc. 1.0E-06 M
  Residual activity (% of control), CK1gamma1: 92 % of control
350 wild-type kinases [12]; Assay Conc. 1.0E-05 M
  Residual activity (% of control), DMPK: 69 % of control
350 wild-type kinases [12]; Assay Conc. 1.0E-06 M
  Residual activity (% of control), DMPK: 106 % of control
350 wild-type kinases [13]; Assay Conc. 1.0E-05 M
  Residual activity (% of control), CHK2: 64 % of control
350 wild-type kinases [13]; Assay Conc. 1.0E-06 M
  Residual activity (% of control), CHK2: 90 % of control
350 wild-type kinases [14]; Assay Conc. 1.0E-05 M
  Residual activity (% of control), CK2alpha1: 82 % of control
350 wild-type kinases [14]; Assay Conc. 1.0E-06 M
  Residual activity (% of control), CK2alpha1: 102 % of control
350 wild-type kinases [15]; Assay Conc. 1.0E-05 M
  Residual activity (% of control), CAMK2A: 63 % of control
350 wild-type kinases [15]; Assay Conc. 1.0E-06 M
  Residual activity (% of control), CAMK2A: 94 % of control
350 wild-type kinases [16]; Assay Conc. 1.0E-05 M
  Residual activity (% of control), DAPK3: 82 % of control
350 wild-type kinases [16]; Assay Conc. 1.0E-06 M
  Residual activity (% of control), DAPK3: 98 % of control
350 wild-type kinases [17]; Assay Conc. 1.0E-05 M
  Residual activity (% of control), ACVR2B: 98 % of control
350 wild-type kinases [17]; Assay Conc. 1.0E-06 M
  Residual activity (% of control), ACVR2B: 123 % of control
350 wild-type kinases [18]; Assay Conc. 1.0E-05 M
  Residual activity (% of control), CIT 1-450: 71 % of control
350 wild-type kinases [18]; Assay Conc. 1.0E-06 M
  Residual activity (% of control), CIT 1-450: 100 % of control
350 wild-type kinases [19]
  remaining activity at 1 µM: < 50%
350 wild-type kinases [20]; Assay Conc. 1.0E-05 M
  Residual activity (% of control), AuroraB: 74 % of control
350 wild-type kinases [20]; Assay Conc. 1.0E-06 M
  Residual activity (% of control), AuroraB: 107 % of control
350 wild-type kinases [21]; Assay Conc. 1.0E-05 M
  Residual activity (% of control), BLK: 55 % of control
350 wild-type kinases [21]; Assay Conc. 1.0E-06 M
  Residual activity (% of control), BLK: 78 % of control
350 wild-type kinases [22]; Assay Conc. 1.0E-05 M
  Residual activity (% of control), CDK14/CycY: 75 % of control
350 wild-type kinases [22]; Assay Conc. 1.0E-06 M
  Residual activity (% of control), CDK14/CycY: 102 % of control
350 wild-type kinases [23]; Assay Conc. 1.0E-05 M
  Residual activity (% of control), CDK4/CycD1: 57 % of control
  Residual activity (% of control), CDK4/CycD2: 49 % of control
  Residual activity (% of control), CDK4/CycD3: 87 % of control
350 wild-type kinases [23]; Assay Conc. 1.0E-06 M
  Residual activity (% of control), CDK4/CycD1: 87 % of control
  Residual activity (% of control), CDK4/CycD2: 111 % of control
  Residual activity (% of control), CDK4/CycD3: 102 % of control

From paper PMC12136037, “Type II kinase inhibitors that target Parkinson’s disease–associated LRRK2” (Science Advances, 2025)
